Experimental data from publication PMC8469962, “Unusual Bicyclo[3.2.1]Octanoid Neolignans from Leaves of Piper crocatum and Their Effect on Pyruvate Dehydrogenase Activity” (Plants, 2021).
“Also recorded” adds a separate entry of the source.

Test system: PDHE1α S300 phosphorylation
Assay: Pyruvate dehydrogenase complex (PDH) cellular activity: immunofluorescence of p-PDH E1α (Ser300) in AD-293 cells
Format: cell-based, Human
Details: for IC50: Homo sapiens, AD293, 24 h incubation, normalized to 5 mM DCA control, read-out: IC50, inhibition of PDHE1α S300 phosphorylation; for inhibition of phosphorylation of E1α S300 in fluorescent images, compared with DCA: compounds at 60 µM, DCA at 5 mM
Description: Point two percent gelatin was added to a black 96-well plate with a clear bottom and incubated for 1 h. Afterwards, the plate was washed with growth media. Human AD-293 cells, derived from the HEK293 cells, were seeded into black 96-well plates with a clear bottom and grown for 24 h. Compounds were then added and incubated for 24 h. The cells were then fixed with 2% paraformaldehyde, and permeabilized anti-PDHE1 pSer300 (Merk Millipore, Burlington, MA, AP1064) was added and incubated overnight. Next, the cells were washed and Alexa fluor 488, goat anti-rabbit ab (Invitrogen, Waltham, MA, A11008) was added with Hoechst 33,258 (Invitrogen, H3569) and incubated for 2 h. Finally, cells were washed, and the plates were measured in Operetta (PerkinElmer, Waltham, MA). The raw data were normalized for the pharmacological inhibitor control (5 mM dichloroacetate (DCA)) and percentage effect values using the software package Harmony High-Content Imaging and Analysis Software 3.1. Dose response curves were generated by plotting the percentage effect values and IC50 values were calculated via GraphPad Prism 6.

SMILES	IC50	inhibition of phosphorylation of E1α S300 in fluorescent images, compared with DCA
C=CCC1=CC2(OC)C(C)C(c3cc(OC)c(OC4OC(CO)C(O)C(O)C4O)c(OC)c3)C(OC)(C1=O)C2O [Compound 3, (1′R,2′S,3′R,7S,8R)-∆^5′^8′-2′-hydroxy-3,5,1′,3′-tetramethoxyl-4′-oxo-8.1′7.3′-neolignan-4-O-β-D-glucopyranoside]	80.2 µM	better effect than that of dichloroacetate (DCA)
C=CCC12C=C(OC)C(=O)C(OC)(C(c3cc(OC)c(OC4OC(CO)C(O)C(O)C4O)c(OC)c3)C1C)C2O [Compound 2, (1′R,2′R,3′S,7S,8R)-∆^5′^,8′-2′-hydroxy-3,5,3′,5′-tetramethoxyl-4′-oxo-8.1′7.3′-neolignan-4-O-β-D-glucopyranoside]	99.8 µM	better effect than that of dichloroacetate (DCA); also recorded: better inhibitory effect of compound 2 than that of compound 3 and DCA
